# Assay results taken from PubChem BioAssay AID2060491 (Molecular Pharmacology Branch, DTP, NCI, 2025).
# Tested on: 857933-349-R-J2-PDC complex spheroids, viability
# Experiment: Anticancer human tumor 857933-349-R-J2-PDC patient-derived colon adenocarcinoma cell line growth inhibition [GQUAD]
# Settings: for IC50: curve of first compound; for viability, T/C: stronger effect = lower value
# Method in brief: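 Viability of tumor cells grown as complex spheroids with endothelial and stromal cells, exposed to drug combinations. Top concentration at or near clinical Cmax (else 10 microM), diluted in half-log increments.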
# [1] = second compound 0.0316 µM, first compound 0.0316 µM
# [2] = second compound 0.0316 µM, first compound 0.1 µM
# [3] = second compound 0.0316 µM, first compound 0.316 µM
# [4] = second compound 0.0316 µM, first compound 1 µM
# [5] = second compound 0.0316 µM, first compound 3.16 µM
# [6] = second compound 0.0316 µM, first compound 10 µM
# [7] = second compound 0.1 µM, first compound 0.0316 µM
# [8] = second compound 0.1 µM, first compound 0.1 µM
# [9] = second compound 0.1 µM, first compound 0.316 µM
# [10] = second compound 0.1 µM, first compound 1 µM
# [11] = second compound 0.1 µM, first compound 3.16 µM
# [12] = second compound 0.1 µM, first compound 10 µM
# [13] = second compound 0.316 µM, first compound 0.0316 µM
# [14] = second compound 0.316 µM, first compound 0.1 µM
# [15] = second compound 0.316 µM, first compound 0.316 µM
# [16] = second compound 0.316 µM, first compound 1 µM
# [17] = second compound 0.316 µM, first compound 3.16 µM
# [18] = second compound 0.316 µM, first compound 10 µM
# [19] = second compound 1 µM, first compound 0.0316 µM
# [20] = second compound 1 µM, first compound 0.1 µM
# [21] = second compound 1 µM, first compound 0.316 µM
# [22] = second compound 1 µM, first compound 1 µM
# [23] = second compound 1 µM, first compound 3.16 µM
# [24] = second compound 1 µM, first compound 10 µM
# [25] = second compound 3.16 µM, first compound 0.0316 µM
# [26] = second compound 3.16 µM, first compound 0.1 µM
# [27] = second compound 3.16 µM, first compound 0.316 µM
# [28] = second compound 3.16 µM, first compound 1 µM
# [29] = second compound 3.16 µM, first compound 3.16 µM
# [30] = second compound 3.16 µM, first compound 10 µM
# [31] = second compound 10 µM, first compound 0.0316 µM
# [32] = second compound 10 µM, first compound 0.1 µM
# [33] = second compound 10 µM, first compound 0.316 µM
# [34] = second compound 10 µM, first compound 1 µM
# [35] = second compound 10 µM, first compound 3.16 µM
# [36] = second compound 10 µM, first compound 10 µM
# 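Note: spheroids exposed to compounds for one week before readout.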
# 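Throughout, for viability, T/C: percent viability relative to vehicle DMSO wells taken as 100%.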
compound,measurement,setting,value
C=CCn1c(=O)c2cnc(Nc3ccc(N4CCN(C)CC4)cc3)nc2n1-c1cccc(C(C)(C)O)n1 + Cc1cnc(CNC(=O)c2c(=O)c3ccc(N4CCCN(C)CC4)nc3n3c2sc2ccccc23)cn1,IC50,second compound 0.0316 µM,696 nM
same,IC50,second compound 0.1 µM,263 nM
same,IC50,second compound 0.316 µM,< 31.6 nM
same,IC50,second compound 1 µM,< 31.6 nM
same,IC50,second compound 3.16 µM,< 31.6 nM
same,IC50,second compound 10 µM,< 31.6 nM
same,"viability, T/C",[1],92.5%
same,"viability, T/C",[2],77.4%
same,"viability, T/C",[3],76.8%
same,"viability, T/C",[4],38.5%
same,"viability, T/C",[5],7.81%
same,"viability, T/C",[6],10.4%
same,"viability, T/C",[7],53.7%
same,"viability, T/C",[8],64.7%
same,"viability, T/C",[9],42.7%
same,"viability, T/C",[10],32%
same,"viability, T/C",[11],4.33%
same,"viability, T/C",[12],7.51%
same,"viability, T/C",[13],19.5%
same,"viability, T/C",[14],21.2%
same,"viability, T/C",[15],11.9%
same,"viability, T/C",[16],5.37%
same,"viability, T/C",[17],2.1%
same,"viability, T/C",[18],3.41%
same,"viability, T/C",[19],3.56%
same,"viability, T/C",[20],3.34%
same,"viability, T/C",[21],2.67%
same,"viability, T/C",[22],2.03%
same,"viability, T/C",[23],1.76%
same,"viability, T/C",[24],2.24%
same,"viability, T/C",[25],2.07%
same,"viability, T/C",[26],2.26%
same,"viability, T/C",[27],2.31%
same,"viability, T/C",[28],1.3%
same,"viability, T/C",[29],0.68%
same,"viability, T/C",[30],1.5%
same,"viability, T/C",[31],0.17%
same,"viability, T/C",[32],0.27%
same,"viability, T/C",[33],0.23%
same,"viability, T/C",[34],0.2%
same,"viability, T/C",[35],0.19%
same,"viability, T/C",[36],0.22%
O=C(NO)c1cnc(N2CCN(S(=O)(=O)c3ccc4ccccc4c3)CC2)nc1 + Cc1cnc(CNC(=O)c2c(=O)c3ccc(N4CCCN(C)CC4)nc3n3c2sc2ccccc23)cn1,IC50,second compound 0.0316 µM,538 nM
same,IC50,second compound 0.1 µM,372 nM
same,IC50,second compound 0.316 µM,< 31.6 nM
same,IC50,second compound 1 µM,< 31.6 nM
same,IC50,second compound 3.16 µM,< 31.6 nM
same,IC50,second compound 10 µM,< 31.6 nM
same,"viability, T/C",[1],95.5%
same,"viability, T/C",[2],79.8%
same,"viability, T/C",[3],79.5%
same,"viability, T/C",[4],15.9%
same,"viability, T/C",[5],0.04%
same,"viability, T/C",[6],0.06%
same,"viability, T/C",[7],65%
same,"viability, T/C",[8],69.3%
same,"viability, T/C",[9],56%
same,"viability, T/C",[10],11.7%
same,"viability, T/C",[11],0.05%
same,"viability, T/C",[12],0.08%
same,"viability, T/C",[13],19.9%
same,"viability, T/C",[14],24.9%
same,"viability, T/C",[15],24.2%
same,"viability, T/C",[16],1.65%
same,"viability, T/C",[17],0.03%
same,"viability, T/C",[18],0.07%
same,"viability, T/C",[19],4.31%
same,"viability, T/C",[20],2.8%
same,"viability, T/C",[21],1.46%
same,"viability, T/C",[22],0.09%
same,"viability, T/C",[23],0.04%
same,"viability, T/C",[24],0.07%
same,"viability, T/C",[25],1.32%
same,"viability, T/C",[26],0.92%
same,"viability, T/C",[27],0.23%
same,"viability, T/C",[28],0.12%
same,"viability, T/C",[29],0.08%
same,"viability, T/C",[30],0.09%
same,"viability, T/C",[31],0.16%
same,"viability, T/C",[32],0.2%
same,"viability, T/C",[33],0.2%
same,"viability, T/C",[34],0.14%
same,"viability, T/C",[35],0.15%
same,"viability, T/C",[36],0.18%
CC1COCCN1c1cc(C2(S(C)(=N)=O)CC2)nc(-c2ccnc3[nH]ccc23)n1 (stereo unspecified) + Cc1cnc(CNC(=O)c2c(=O)c3ccc(N4CCCN(C)CC4)nc3n3c2sc2ccccc23)cn1,IC50,second compound 0.0316 µM,800 nM
same,IC50,second compound 0.1 µM,327 nM
same,IC50,second compound 0.316 µM,< 31.6 nM
same,IC50,second compound 1 µM,< 31.6 nM
same,IC50,second compound 3.16 µM,< 31.6 nM
same,IC50,second compound 10 µM,< 31.6 nM
same,"viability, T/C",[1],82%
same,"viability, T/C",[2],75.7%
same,"viability, T/C",[3],72.3%
same,"viability, T/C",[4],43.8%
same,"viability, T/C",[5],42.1%
same,"viability, T/C",[6],31.9%
same,"viability, T/C",[7],56.5%
same,"viability, T/C",[8],68.6%
same,"viability, T/C",[9],45.8%
same,"viability, T/C",[10],39.1%
same,"viability, T/C",[11],34.4%
same,"viability, T/C",[12],26.7%
same,"viability, T/C",[13],26.8%
same,"viability, T/C",[14],31.2%
same,"viability, T/C",[15],20.8%
same,"viability, T/C",[16],13.4%
same,"viability, T/C",[17],10.6%
same,"viability, T/C",[18],10%
same,"viability, T/C",[19],5.52%
same,"viability, T/C",[20],6.04%
same,"viability, T/C",[21],4.55%
same,"viability, T/C",[22],3.48%
same,"viability, T/C",[23],3.6%
same,"viability, T/C",[24],4.17%
same,"viability, T/C",[25],2.4%
same,"viability, T/C",[26],2.9%
same,"viability, T/C",[27],2.49%
same,"viability, T/C",[28],1.88%
same,"viability, T/C",[29],1.99%
same,"viability, T/C",[30],2.82%
same,"viability, T/C",[31],1.11%
same,"viability, T/C",[32],1.51%
same,"viability, T/C",[33],1.22%
same,"viability, T/C",[34],1.75%
same,"viability, T/C",[35],1.64%
same,"viability, T/C",[36],2.19%
